Positions of bridges follow the written chain, without caps; N, C: chain ends. Non-standard residues stand in square brackets, D forms with d. Residues, ends and D or L forms follow the SMILES beside them. Ala(imidazol-2-yl) = N[C@@H](Cc1ncc[nH]1)C(=O)O
Target: T1, IL17-RE-IL-17C (Homo sapiens, UniProt Q8NFR9+Q9P0M4)
T1 sequence (Q9P0M4 whole entry): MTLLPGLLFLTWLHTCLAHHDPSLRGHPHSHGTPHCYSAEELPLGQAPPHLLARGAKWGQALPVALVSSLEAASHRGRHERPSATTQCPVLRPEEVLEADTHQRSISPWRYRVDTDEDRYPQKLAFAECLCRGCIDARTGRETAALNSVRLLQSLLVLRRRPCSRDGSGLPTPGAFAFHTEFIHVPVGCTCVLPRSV
T1 sequence (Q8NFR9 whole entry): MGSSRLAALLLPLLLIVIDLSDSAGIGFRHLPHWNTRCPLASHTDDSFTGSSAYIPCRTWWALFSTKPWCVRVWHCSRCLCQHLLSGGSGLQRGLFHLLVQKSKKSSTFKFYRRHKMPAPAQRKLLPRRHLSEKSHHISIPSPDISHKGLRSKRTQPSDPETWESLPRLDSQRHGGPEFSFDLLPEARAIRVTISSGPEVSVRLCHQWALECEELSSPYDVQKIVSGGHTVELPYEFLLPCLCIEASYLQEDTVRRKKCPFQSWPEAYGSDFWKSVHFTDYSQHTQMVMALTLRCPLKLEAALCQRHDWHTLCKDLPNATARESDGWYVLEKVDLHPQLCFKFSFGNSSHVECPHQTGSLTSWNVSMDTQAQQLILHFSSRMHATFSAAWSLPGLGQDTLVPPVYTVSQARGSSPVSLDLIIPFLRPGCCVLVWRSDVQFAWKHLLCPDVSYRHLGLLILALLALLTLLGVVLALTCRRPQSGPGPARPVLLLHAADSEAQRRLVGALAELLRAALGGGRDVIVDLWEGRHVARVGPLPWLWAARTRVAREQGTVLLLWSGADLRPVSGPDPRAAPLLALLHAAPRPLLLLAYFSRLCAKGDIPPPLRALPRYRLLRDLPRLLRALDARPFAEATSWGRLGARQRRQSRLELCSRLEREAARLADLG
Assay: Inhibition of IL-17C/IL-17RE interaction (unknown origin) incubated for 1.5 hrs by ELISA method
Format: protein-complex assay

IC50	Structure (SMILES)
> 30 µM	CC[C@H](C)[C@@H]1NC(=O)[C@H](CCCNC(=N)N)NC(=O)[C@H](Cc2ccc(O)cc2)NC(=O)[C@H](Cc2ccc(O)cc2)NC(=O)[C@H](Cc2c[nH]cn2)NC(=O)[C@H](CCCNC(=N)N)NC(=O)[C@H](Cc2ccc(O)cc2)NC(=O)CSC[C@@H](C(=O)NCC(N)=O)NC(=O)CNC(=O)[C@H](CC(C)C)NC(=O)[C@H](CCC(=O)O)NC(=O)CNC(=O)[C@H](Cc2ccc(O)cc2)NC(=O)[C@H](CC(C)C)NC1=O ({CH2CO}-YRHYYRILYGELGCG-NH2; thioether N-14)
> 30 µM	CC[C@H](C)[C@@H]1NC(=O)[C@@H]2CCCN2C(=O)[C@H](CCCNC(=N)N)NC(=O)[C@H](Cc2c[nH]c3ccccc23)NC(=O)[C@H](Cc2ccccc2)NC(=O)[C@H](CC(N)=O)NC(=O)[C@@H]2CCCN2C(=O)[C@H](Cc2ccccc2)NC(=O)[C@H](Cc2c[nH]c3ccccc23)NC(=O)[C@H](Cc2ccc(O)cc2)NC(=O)CSC[C@@H](C(=O)NCC(N)=O)NC(=O)[C@H](CC(N)=O)NC1=O ({CH2CO}-YWFPNFWRPINCG-NH2; thioether N-12)
> 30 µM	CC[C@H](C)[C@@H]1NC(=O)[C@H](Cc2c[nH]c3ccccc23)NC(=O)[C@H](CC(N)=O)NC(=O)[C@H](Cc2ccc(O)cc2)NC(=O)[C@H](Cc2ccc(O)cc2)NC(=O)CSC[C@@H](C(=O)NCC(N)=O)NC(=O)[C@H](CO)NC(=O)[C@H]([C@@H](C)O)NC(=O)[C@H](CC(N)=O)NC(=O)[C@H](Cc2ccc(O)cc2)NC(=O)[C@H](Cc2ccc(O)cc2)NC(=O)[C@H](Cc2ccccc2)NC(=O)[C@H](Cc2c[nH]cn2)NC(=O)[C@H](CC(=O)O)NC1=O ({CH2CO}-YYNWIDHFYYNTSCG-NH2; thioether N-14)
0.0118 µM	CC(C)C[C@@H]1NC(=O)[C@H](C)NC(=O)[C@H](Cc2ccc(O)cc2)NC(=O)[C@H](Cc2ccc(O)cc2)NC(=O)[C@H](Cc2ccc(O)cc2)NC(=O)[C@H](CC(C)C)NC(=O)[C@H](Cc2ncc[nH]2)NC(=O)[C@H](Cc2ccc(O)cc2)NC(=O)CSC[C@@H](C(=O)NCC(N)=O)NC(=O)CNC(=O)[C@H](CC(C)C)NC(=O)[C@H](CC(N)=O)NC(=O)CNC(=O)[C@H](Cc2ccc(O)cc2)NC1=O ({CH2CO}-Y[Ala(imidazol-2-yl)]LYYYALYGNLGCG-NH2; thioether N-14)
